The text below walks through data of ChEMBL document CHEMBL1201862, “PubChem BioAssay data set” (2004).

Molecules are shown by their SMILES.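 These data come from cells grown in 96-well plates and exposed to compound for 48 hours at five concentrations. Here, GI50 denotes the concentration required for 50% inhibition of growth.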 Calls of active or inactive are those of the source. No stated cut-off is given here; in the data, active = GI50 up to about 1.1 µM and inactive = higher.

Test systems include HOP-92; NCI-H23; HCC 2998; T47D; OVCAR-4; LOX IMVI; OVCAR-5; IGROV-1; SK-MEL-5; HT-29; RPMI-8226; SW-620; HOP-62; MCF7; CAKI-1; SN12C; COLO 205; SR; M14; MOLT-4.
Common to all, as to experiment: inhibition of tumour cell growth, NCI panel, 48 h

In the case of `COC(=O)C(C(=O)C(=O)NC1Nc2ccc(C)cc2S1)c1nc2ccc(Cl)cc2nc1O` (configuration not stated), the GI50 is 82.4 µM (inactive) in the assay on HOP-92; > 100 µM (inactive) with NCI-H23; > 100 µM (inactive) in the assay with HCC 2998; > 100 µM (inactive) in the assay on T47D; 74 µM (inactive) in the assay on OVCAR-4; > 100 µM (inactive) in the assay on LOX IMVI. In addition, the GI50 in the assay with OVCAR-5 is > 100 µM (inactive); with IGROV-1, 40.6 µM (inactive); in the assay with SK-MEL-5, > 100 µM (inactive); with HT-29, > 100 µM (inactive); in the assay with RPMI-8226, > 100 µM (inactive); with SW-620, > 100 µM (inactive). Also, the GI50 in the assay on HOP-62, in the assay with MCF7, in the assay on CAKI-1 and in the assay on SN12C was > 100 µM (inactive) in each case.
Regarding `COc1ccccc1Cn1c2c(c3cc(O)ccc31)C(=O)c1ccccc1C2=O`, the GI50 in the assay on NCI-H23 was 20 µM (inactive); with OVCAR-4 it was 3.21 µM (inactive); in the assay with LOX IMVI, 12.4 µM (inactive); in the assay on COLO 205, 61.9 µM (inactive); in the assay on SR, 52.8 µM (inactive); in the assay with OVCAR-5 it was 10.4 µM (inactive). For the same compound, the GI50 in the assay with IGROV-1 is 16.6 µM (inactive); in the assay on M14, > 100 µM (inactive); in the assay on SK-MEL-5 it was 37.2 µM (inactive); with HT-29, > 100 µM (inactive); in the assay with MOLT-4 it was > 100 µM (inactive); in the assay on RPMI-8226 it was 15.3 µM (inactive). Further, the GI50 in the assay on SW-620 was 79.4 µM (inactive); with HOP-62, 16.1 µM (inactive); with MCF7 it was 10.1 µM (inactive); in the assay with CAKI-1, 16.7 µM (inactive); in the assay on SN12C it was 22.8 µM (inactive).
Take `COC(=O)C1CC2(c3ccccc3)C(=O)c3ccccc3N2O1` (configuration not stated): the GI50 with HOP-92 was 49.5 µM (inactive); in the assay on NCI-H23, > 100 µM (inactive); in the assay on HCC 2998, > 100 µM (inactive); in the assay on OVCAR-4, > 100 µM (inactive); in the assay on LOX IMVI, 26.1 µM (inactive); in the assay with COLO 205, 98.4 µM (inactive). In addition, the GI50 with SR is 18.9 µM (inactive); in the assay on OVCAR-5, > 100 µM (inactive); with IGROV-1 it was > 100 µM (inactive); in the assay on M14 it was > 100 µM (inactive); with SK-MEL-5, 74.8 µM (inactive); in the assay with HT-29, 33.3 µM (inactive). Further, the GI50 in the assay on MOLT-4 was 22.1 µM (inactive); with RPMI-8226, 17.7 µM (inactive); in the assay on SW-620 it was 39.3 µM (inactive); in the assay with HOP-62 it was 71.3 µM (inactive); in the assay on CAKI-1, 36.5 µM (inactive); with SN12C it was 43 µM (inactive).
As for `COC(=O)[C@@H](N1C(=O)c2ccccc2C1=O)C1(C)CC(Cl)=NO1` (some centres not stated), the GI50 in the assay with NCI-H23 was 48.3 µM (inactive); with HCC 2998, > 100 µM (inactive); with T47D it was 28.5 µM (inactive); with OVCAR-4, > 100 µM (inactive); with COLO 205 it was > 100 µM (inactive); with OVCAR-5 it was > 100 µM (inactive). For the same compound, the GI50 in the assay with IGROV-1 is 17.7 µM (inactive); in the assay on M14, > 100 µM (inactive); in the assay with SK-MEL-5 it was > 100 µM (inactive); in the assay on HT-29, > 100 µM (inactive); with RPMI-8226 it was > 100 µM (inactive); in the assay on SW-620, > 100 µM (inactive). The GI50 is 17 µM (inactive) in the assay on HOP-62, 53.6 µM (inactive) with MCF7, 12.7 µM (inactive) with CAKI-1 and 33 µM (inactive) in the assay with SN12C.
On to `CCOC(=O)c1csc(-c2nc(CCNC(=O)c3ccccc3)sc2Cl)n1`, for which the GI50 with HOP-92 was 5.74 µM (inactive); in the assay on NCI-H23, 40.9 µM (inactive); in the assay with HCC 2998, > 100 µM (inactive); in the assay with COLO 205, 77.3 µM (inactive); with SR, 37.1 µM (inactive); in the assay with OVCAR-5 it was > 100 µM (inactive). The GI50 with IGROV-1 was > 100 µM (inactive); in the assay with M14, 58.5 µM (inactive); with SK-MEL-5 it was 42.7 µM (inactive); with HT-29 it was > 100 µM (inactive); in the assay on MOLT-4 it was 34.3 µM (inactive); with RPMI-8226 it was 44 µM (inactive). The GI50 in the assay with SW-620 was > 100 µM (inactive); in the assay on HOP-62, 55.7 µM (inactive); with MCF7, 67.6 µM (inactive); with SN12C it was > 100 µM (inactive).
Regarding `CN(C)CCNc1c([N+](=O)[O-])cc2c3c(cccc13)C(=O)N(CCN(C)C)C2=O`, the GI50 in the assay with HOP-92 is 0.587 µM (active); with NCI-H23, 1.78 µM (inactive); with HCC 2998, 1.53 µM (inactive); in the assay on OVCAR-4, 0.807 µM (active); in the assay on LOX IMVI, 1.08 µM (active); with COLO 205, 1.11 µM (active). The GI50 with OVCAR-5 is 2.03 µM (inactive); in the assay with IGROV-1, 1.73 µM (inactive); with SK-MEL-5, 2.18 µM (inactive); with HT-29, 0.61 µM (active); in the assay on MOLT-4, 0.476 µM (active); in the assay with RPMI-8226, 2.33 µM (inactive). Besides, the GI50 is 0.593 µM (active) in the assay on SW-620; 2.03 µM (inactive) in the assay with HOP-62; 1.22 µM (inactive) in the assay with MCF7; 2.13 µM (inactive) in the assay on CAKI-1; 1.46 µM (inactive) in the assay with SN12C.
As to `C=CCNC(=O)C(C)C1CCC2(C)C=CC(=O)C(C)=C2C1O` (configuration not stated), the GI50 in the assay on HOP-92, in the assay on NCI-H23, with HCC 2998, in the assay with OVCAR-4, in the assay on LOX IMVI and in the assay with COLO 205 was > 100 µM (inactive) throughout. In addition, the GI50 with OVCAR-5, in the assay on IGROV-1, in the assay with SK-MEL-5, with HT-29, with MOLT-4 and in the assay with RPMI-8226 was > 100 µM (inactive) throughout. For the same compound, the GI50 in the assay on SW-620, with HOP-62, in the assay on MCF7, with CAKI-1 and in the assay with SN12C was > 100 µM (inactive) throughout.
As for `CC1C2CC(CC(=O)N2)C1(C)C` (configuration not stated), the GI50 with HOP-92, with NCI-H23, in the assay with HCC 2998, in the assay on T47D, in the assay on OVCAR-4 and in the assay on COLO 205 was > 100 µM (inactive) in each case. Also, the GI50 with OVCAR-5, with IGROV-1, in the assay on M14, in the assay with SK-MEL-5, with HT-29 and in the assay with SW-620 was > 100 µM (inactive) each time. Besides, the GI50 in the assay with HOP-62, with MCF7, in the assay with CAKI-1 and in the assay on SN12C was > 100 µM (inactive) throughout.
`CC(=O)OCC1OC(N2C(=S)N[C@H]([C@@H](O)[C@H](O)[C@H](O)CO)[C@H]2O)C(OC(C)=O)C(OC(C)=O)C1OC(C)=O` (some centres not stated): the GI50 in the assay on HOP-92, in the assay with NCI-H23, with HCC 2998, in the assay on OVCAR-4, in the assay with COLO 205 and with SR was > 100 µM (inactive) throughout. In addition, the GI50 with OVCAR-5, in the assay with IGROV-1, with M14, in the assay on SK-MEL-5, in the assay on HT-29 and in the assay with MOLT-4 was > 100 µM (inactive) throughout. In addition, the GI50 in the assay with RPMI-8226, in the assay with SW-620, in the assay with HOP-62, in the assay with MCF7, in the assay on CAKI-1 and in the assay on SN12C was > 100 µM (inactive) in each case.
Take `COC(=O)C1=C(C(=O)OC)SC(=C(/N=N/c2ccccc2)c2ccccc2)S1`: the GI50 in the assay with HOP-92, in the assay with NCI-H23, in the assay on HCC 2998, in the assay with OVCAR-4, with LOX IMVI and in the assay on COLO 205 was > 100 µM (inactive) throughout. In addition, the GI50 is > 100 µM (inactive) in the assay on SR; > 100 µM (inactive) in the assay with OVCAR-5; > 100 µM (inactive) with IGROV-1; 45.8 µM (inactive) in the assay on M14; > 100 µM (inactive) in the assay on SK-MEL-5; > 100 µM (inactive) in the assay on HT-29. Besides, the GI50 in the assay with MOLT-4, in the assay with RPMI-8226, with SW-620, with HOP-62, in the assay with CAKI-1 and in the assay with SN12C was > 100 µM (inactive) in each case.
Turning to `CCC1(C)N=c2c(ncn2N=C(C)C)=C(C(N)=O)N1` (configuration not stated), the GI50 was 0.426 µM (active) in the assay on HOP-92; > 100 µM (inactive) in the assay with NCI-H23; > 100 µM (inactive) in the assay with HCC 2998; > 100 µM (inactive) with T47D; > 100 µM (inactive) in the assay with OVCAR-4; > 100 µM (inactive) in the assay on LOX IMVI. Moreover, the GI50 with COLO 205, in the assay with SR, with OVCAR-5, in the assay on IGROV-1, in the assay with M14 and in the assay with SK-MEL-5 was > 100 µM (inactive) throughout. Moreover, the GI50 in the assay on HT-29, in the assay with RPMI-8226, in the assay on SW-620, in the assay with HOP-62, with CAKI-1 and with SN12C was > 100 µM (inactive) each time.
